settings: acidic group

Structure (SMILES)	pKa
NS(=O)(=O)c1cccc([N+](=O)[O-])c1	9.19
CCN(CC)Cc1cc(F)ccc1O	10.8
O=C1CC(=O)CS(=O)(=O)C1	2.72
O=Cc1cc(Br)ccc1O	7.4
S=c1[nH]c(SCc2ccccc2)c(-c2ccccc2)[nH]1	9.55
O=C(O)CCc1cccs1	4.34
CCCC(C(CC)CO)C(CC)C(=O)O (stereo not drawn)	4.78
CCC[NH2+]CCS	7.92
CCP(=O)(O)CC	3.22
O/N=C/c1ccnc2ccccc12	10.4
O=C(Cc1cccnc1)c1ccccc1	13.7
Cc1ccc(C[n+]2ccc(C(=O)Cc3ccccc3)cc2)cc1	8.91
NC(=O)N/N=C/c1ncnc2nc[nH]c12	9.1
CC1(C)CC=CC(=O)C1	12.4
COC(=O)Nc1ncnc2nc[nH]c12	9.68
C[NH+](C)CCCCCCCNC(=O)/C=N/O	8.98
O=C(O)c1csc(Br)n1	3.28
CC1NCCc2c1[nH]c1ccc([N+](=O)[O-])cc21 (stereo not drawn)	14.1
CCCCN(C(=O)c1cccc(O)c1)c1ccc(/N=N/c2ccc3c(c2)OCCOCCOCCOCCOCCO3)cc1	9.54
[NH3+]CC#CC#CCCC(=O)O	4.05
O=C(O)CSc1ccccc1[N+](=O)[O-]	3.18

Structure (SMILES)	pKa
O=S(=O)([O-])c1cc(O)c2[nH]ncc2c1	8
CCCCc1c(C)nn(-c2ccccc2)c1O	11.4
Oc1nc(C(F)(F)F)nc2[nH+]c[nH]c12	1.1
Cc1ccc(O)c([N+](=O)[O-])c1	7.4
COC(=O)c1ccccc1-n1nc(O)cc1C	12.3
N#Cc1c[nH+]c2ccccc2c1O	-2.08
O=[N+]([O-])c1ccc(NC=S)cc1	10.1
O=C1CCc2ccc([N+](=O)[O-])cc2C1	11.8
NC(=O)Nc1ncnc2nc[nH]c12	9.95
CC1(C)CC(=O)C(Br)C(=O)C1	3.1
O=C(O)c1cc(=O)cco1	1.5
O=[N+]([O-])c1ccc(O)c(C[NH+]2CCOCCOCCOCCOCC2)c1	5.79
O=C(O)Cn1ncnn1	2.12
O=S1(=O)N=CNc2ccncc21	6.71
CC(C)Nc1ncnc2[nH]ncc12	11
COC(=O)[C@H](NC(=O)Cc1ccccc1)[C@@H]1SC(C)(C)[C@H]2C(=O)NC(=S)N12	8
O=C(O)C1CC1(Cl)Cl (stereo not drawn)	3.51
CC(C)c1ccc(Br)c(O)c(=O)c1	6.28
NC(=O)/C(=N\O)c1ccccc1	10.1
O=C(O)c1[nH]c2ccccc2[nH+]1	0.4
Oc1ccnc([Se-])[nH+]1	7.18

Structure (SMILES)	pKa
Cc1ccccc1OC(C)C(=O)O (stereo not drawn)	3.37
Oc1c2c(nn1-c1ccccc1)CCCC2	11.4
Oc1nc([S-])nc2nc[nH]c12	10.3
CCCCC#CC(=O)O	2.61
Oc1cc2ccccc2cc1C1=[NH+]CCN1	7.01
N#CC(c1ccc(Cl)cc1)c1ccc([N+](=O)[O-])cc1 (stereo not drawn)	10.7
O=C(O)CCc1ccco1	4.36
Cc1cccc2ccc(O)cc12	9.42
O=C(N/N=C/c1ccccc1O)c1ccncc1	8.31
CSc1nc(N)c2[nH]cnc2n1	10.2
CCNC(=S)OC(C)C	11.5
O=C(O)C12CC3(F)CC(F)(CC(F)(C3)C1)C2	3.24
C[n+]1cccc2c3ccccc3[nH]c21	7.4
N#CC(C#N)=NNc1ccccc1	6.55
CC(C)(C)c1ccc(SCC(=O)O)cc1	3.76
Cc1ccc(S(=O)(=O)NCC(=O)[O-])cc1	11.4
Cc1cc(/N=N/c2nc3ccccc3s2)c(O)c2ncccc12	9.6
CSCC(=O)O	3.67
Cn1cnc2c(O)[nH+]c(N)nc21	3.07
COc1cnc[nH+]c1O	1.75
CC(=S)Nc1ccccc1	11.6

Structure (SMILES)	pKa
O=C1Nc2ccccc2C1=O	11.9
Oc1ccccc1-c1ccccn1	10.6
O=C(O)c1cccc[n+]1[O-]	3.54
O=Cc1ccc(O)cc1	7.53
Cc1ccc(C(=O)NS(=O)(=O)c2ccc(N)cc2)cc1C	4.66
CCOc1ccccc1C(=O)O	4.18
O=C(O)/C=C/c1ccccc1O	4.56
C[n+]1ccc2ccc(O)cc2c1	7.09
CCOC(=O)CC(=O)c1ccc(C)cc1	10.7
CC(C#N)(CC(=O)O)c1ccccc1 (stereo not drawn)	3.99
O=C(O)c1csc(Cl)n1	3.3
Nc1nc(O)cc[nH+]1	4.01
COc1ccc2c(c1)[nH]c1c(C)nccc12	13.5
O=[N+]([O-])c1n[nH]c(-n2cncn2)n1	2
CC1CCn2nnnc2C(C(=O)O)C1 (stereo not drawn)	3.2
CC(C)(C)C(=O)CC(=O)C(C)(C)C	11.8
CCCO	16
Cc1cc(N)ccc1S(=O)(=O)Nc1nccs1	7.3
O=C1/C(=N/O)C=Cc2ccccc21	7.52

same assay, conditions: basic group

Structure (SMILES)	pKa
NCC(O)CO (stereo not drawn)	9.3
[S-]c1ccncn1	6.7
CCNN(C)CC	6.81
CN(C)/C=N/c1cccc([N+](=O)[O-])c1	7.29
C(=N\c1ccccc1)/Nc1ccccc1	6.3
S=c1[nH]c(SCc2ccccc2)c(-c2ccccc2)[nH]1	-3.31
c1ccc(CN(Cc2ccccc2)Cc2ccccc2)cc1	7.44
Nc1ccncc1Br	7.15
C#CCNCC#C	6.08
COc1ccnc2ccccc12	6.45
CC(C)N/C=N/c1ccc(-c2cncn2C)cc1	8.83
O/N=C/c1ccnc2ccccc12	4.55
O=C(Cc1cccnc1)c1ccccc1	4.87
Cc1cc(C)c(C)nn1	4.81
NC(=O)N/N=C/c1ncnc2nc[nH]c12	2.1
O=[PH]([O-])C([NH2+]Cc1ccccn1)c1ccccc1O (stereo not drawn)	3.25
COC(=O)Nc1ncnc2nc[nH]c12	2.27
CCNC(C)C(=O)[O-] (stereo not drawn)	10.2
Nc1nccc(-c2csc(N)[nH+]2)n1	2.6
Nc1cccc2cccnc12	4.01
C1CCN(CCN2CCCCC2)CC1	9.43
CC(=O)N1CCN(C)CC1	7.1
Cc1cnc2c(ccc3cccnc32)c1C	5.62
CCNCCC(=O)[O-]	10.6

Structure (SMILES)	pKa
COc1nc(N)c2ncn([C@H]3O[C@@H](CO)[C@H](O)[C@@H]3O)c2n1	3.2
CC(=O)OC1CN2CCC1CC2 (stereo not drawn)	9.27
CC(C)(C)SC(=N)c1ccccc1	9.24
COc1ccc([N+](=O)[O-])c2cccnc12	3.55
COc1cc(S(C)=O)ccc1-c1nc2cnccc2[nH]1 (stereo not drawn)	6.16
CCOc1c(C#N)cnc2ccccc12	3.18
CN1CC[NH2+]CC1	5.05
CCC1=NCCC1	7.91
c1cncc(-c2ccc[nH+]c2)c1	3
O=C(CCN1CCOCC1)C(c1ccccc1)c1ccccc1	6.39
NCC(O)c1ccccc1 (stereo not drawn)	8.94
CN(CCO)CCO	8.51
CCN(CC)CC(=O)N(C)c1ccccc1C	8.74
NC(=O)Nc1ncnc2nc[nH]c12	2.35
CCN(CCO)c1ccc(N)cc1	7.12
Cc1ccccc1/C(=N\CCC[NH+](C)C)c1ccccc1-c1ccccc1	4.67
O=P([O-])([O-])C(NCc1ccncc1)c1ccccc1[O-] (stereo not drawn)	12.2
C/N=C1/CCCCC1C (stereo not drawn)	9.47
CC(C)Nc1ncnc2[nH]ncc12	4.62
CC[NH2+]CCN	7.52
CN(C)CC(C)(C)C	9.75
CCCCCCCNc1ccccc1	5.09
CCCCCCCCN1CCCCC1	8.28
OCCC[C@@H]1CC[C@@H]2CCCN12	11.5

Structure (SMILES)	pKa
O=C(Cc1ccccc1Nc1c(Cl)cccc1Cl)OCCCN1CCOCC1	7.99
C[NH+]1C[C@H](C(=O)O)C[C@@]2(O)c3cccc4[nH]cc(c34)C[C@H]12	3.94
[S-]c1ccnc([S-])n1	11.2
C[NH+](C)CC(C)(C)CN	7.4
Nc1cccc2ccnnc12	3.68
CC(N)CCc1ccccc1 (stereo not drawn)	9.78
CC(C)N(CCc1ccccc1)CCc1ccccc1	10
Nc1ncnc(N)c1N	5.78
N[C@H](c1ccccc1)[C@H](O)c1ccccc1	10.5
Cn1ncc2c(NCc3ccco3)ncnc21	3.8
O=[N+]([O-])c1ccc2[nH]c(C(F)(F)Cl)nc2c1	0.77
O=C([O-])c1nc2cc(Cl)ccc2[nH]1	4.3
c1ccc2cnncc2c1	3.47
N=C1C=C(N)C(=O)c2ccccc21	8.87
[NH3+]Nc1nncc2ccccc12	2.9
CC1CCNCC1	10.9
C(=C\CN1CCCCC1)/CN1CCCCC1	9.7
C[Si](C)(C)CNc1ccccc1	5.3
CNCC(O)c1ccccc1 (stereo not drawn)	9.31
NNCCOc1ccccc1	6.8
O=[N+]([O-])c1cc(CN2CCCCC2)c([O-])c2ccccc12	10.7
c1c[nH]c(Cc2ncc[nH]2)n1	7.27
COC(=O)c1ccncc1	3.38
OC[C@@H]1O[C@H](CN2CCOCC2)[C@@H](O)[C@H](O)[C@@H]1O	6.1

Structure (SMILES)	pKa
O=C(N/N=C/c1ccccc1O)c1ccncc1	3.33
CSc1nc(N)c2[nH]cnc2n1	3.1
Nc1cccc2cccc(N)c12	4.6
[O-]c1cccc(Cl)n1	7.76
CCOCCn1c(CN2CCC[NH+](CCCCn3cc(C(=O)[O-])cn3)CC2)nc2ccccc21	4.8
CN(C)CCc1nnn[n-]1	9.39
NCC(=O)NCC(=O)[O-]	8.31
N#CC(C#N)=NNc1ccccc1	-0.82
Cc1cncc(C)c1	6.15
CC(C)(C)c1cccc(C(C)(C)C)n1	4.95
O=C([O-])[C@@H]1O[C@H](Oc2ccc3cccnc3c2)[C@@H](O)[C@H](O)[C@H]1O	5.32
C1CSCCN1	9.05
Oc1ccccc1-c1ccccn1	4.2
C[NH+]1CCC[C@H]1c1cccnc1	3.16
O=C1[C@H]2C[C@H](CN3CCCC=C23)[C@@H]2CCCCN12	9.7
CC(=O)CCCCN(C)C	9.66
Nc1ccnc2c1ncn2CCOCP(=O)(O)O	5.49
Cn1cc[nH+]c1N=[N+]=[N-]	0.5
c1nc(NC2CCCCC2)c2ncn(C3CCCCC3)c2n1	4.4
C[NH2+]CCCNc1c2ccccc2nc2cccc([N+](=O)[O-])c12	6.2
CC1CCCC(C)(C)N1C (stereo not drawn)	10.8
CCOC(=O)[C@H](C)N	7.8
COc1ccc2c(c1)[nH]c1c(C)nccc12	7.73
C[NH+](C)CCCNc1ccnc2c([N+](=O)[O-])cccc12	6.91

Reference: the pKa sets of Baltruschat and Czodrowski (2020)
